The experiment can be described thus: Assessing Antiviral Activity Against Human Cytomegalovirus (HCMV): To assess their antiviral activity, some compounds were tested against human cytomegalovirus (HCMV) in vitro. Human […] cells were grown to confluency (˜1.0×10^4 cells/well) in 96-well plate format in Dulbecco's Modified Eagle Medium (DMFM) supplemented with 10% fetal bovine serum (FBS) 2 mM L-glutamine, 0.1 mM non-essential amino acids, 10 mM HEPES, and 100 U/ml each of penicillin and streptomycin and infected with an HCMV variant expressing mCherry tagged pUL99 (the product of late viral UL99 gene) at a multiplicity of 0.01 infectious unit (IU) per cell. Assays were performed in triplicate. One hour later, medium of the cells was replaced with fresh medium containing the indicated compounds at 25, 12.5, 6.25, 3.13, 1.56, 0.78, 0.39 μM or the carrier in which the compounds are dissolved (DMSO). Final concentration of DMSO was 0.5% in each treatment. Virus yield in the culture was determined at 7 days post infection by quantification of fluorescent (mCherry positive) cells in each well by fluorescent microscopy. Results were plotted using CDD Vault (CDD Vault was developed by Collaborative Drug Discovery, Inc., 1633 Bayshore Hwy, Suite 342, Burlingame, Calif. 94010) in order to calculate IC50s. The format is cell-based.

pIC50: −log10 of the molar value.

Our source for the IC50 values is ChEMBL document CHEMBL5729352, “Broad spectrum antiviral compositions and methods” (2022).

As usually defined, the pIC50 is the IC50 on a negative log10 scale, so that one unit is a factor of ten.

`NC(=O)c1cccc(Cc2cnc(N3CCc4cc5c(cc4C3)OCCO5)s2)c1`: the pIC50 was 5.06.
